Experimental data taken from patent US20100305076A1, “METHODS OF TREATMENT FOR ULCERATIVE COLITIS” (priority 2006, published 2010).

Assays:
Type in all cases: in vivo, human
[1] = test system: moderate ulcerative colitis; assay: Individual subject examples: PGA score and rectal bleeding
Text: The subject takes two tablets of the pharmaceutical in the morning and two tablets in the evening such that about 4.8 g/day of 5-ASA is delivered. […] The four tablets are taken in the morning so that 4.8 g/day of 5-ASA is delivered.

[2] = test system: moderate ulcerative colitis; assay: Two phase III randomized double-blind trials: overall improvement (treatment success) from baseline at week 6; details: for Overall improvement: all subjects with moderately active UC, Studies I and II
Text: Data from subjects with mild to moderate UC are combined and analyzed from two phase III, multi-center, randomized, double-blind, controlled clinical trials of identical design assessing the safety and clinical efficacy of an increased dosage of 5-ASA. The primary endpoint is the percentage of moderate UC subjects achieving overall improvement (i.e., treatment success) from baseline at week 6. This is defined as: (1) complete response (remission); complete resolution of signs and symptoms (stool frequency, rectal bleeding, Subject Functional Assessment (SFA) and sigmoidoscopy score) and a Physician's Global Assessment (PGA) of 0; or (2) partial response; improvement from baseline in the PGA score and improvement in at least one clinical assessment (stool frequency, rectal bleeding, SFA and sigmoidoscopy score) and no worsening in any of the other clinical assessments. […] Pre-specified subgroup analyses for fifty-four demographic and baseline characteristics are performed in subjects with moderately active disease (PGA score=2) to assess consistency of primary endpoint.

[3] = test system: moderate ulcerative colitis; assay: Bayesian analysis of treatment success probability in men with moderate disease
Procedure: In addition, a Bayesian analysis is conducted to calculate the probability that treatment with the 4.8 g/day dose in men results in a higher success rate than treatment with the 2.4 g/day does. This type of analysis considers data from any previous studies conducted using either of the two dose levels. […] Using these prior distributions and Bayes analyses, the “posterior distribution” is calculated for each dose level based on the date obtained from previous studies.

[4] = Safety and tolerability in the phase III trials
Text: Data from subjects with mild to moderate UC are combined and analyzed from two phase III, multi-center, randomized, double-blind, controlled clinical trials of identical design assessing the safety and clinical efficacy of an increased dosage of 5-ASA.

[5] = Example 6: person, two 1.2 g delayed-release tablets three times daily (7.2 g/day)
[6] = Example 5: person previously treated with steroids, four 1.2 g delayed-release tablets once daily (4.8 g/day)
[7] = Example 4: non-smoking man, oral, two 1.2 g tablets twice daily

O=C(O)CCNC(=O)c1ccc(/N=N/c2ccc(O)c(C(=O)O)c2)cc1 [balsalazide, (E)-5-[[4-[[(2-carboxyethyl)amino]carbonyl]phenyl]azo]-2-hydroxybenzoic acid]
Physician's Global Assessment (PGA) score [1, 5]: improves in comparison to baseline | Rectal bleeding [1, 5]: reduced

Nc1ccc(O)c(C(=O)O)c1 [mesalamine, 5-amino-2-hydroxybenzoic acid]
Overall improvement ([2]; 2.4 g/day (400 mg tablet)): 58% | Success Rate ([2]; 2.4 g/day, male, moderate disease, Study 1, primary analysis): 50.0% | Success Rate ([2]; 2.4 g/day, male, moderate disease, Study 1, set-to-failure): 46.8% | Success Rate ([2]; 2.4 g/day, male, moderate disease, Study 2, primary analysis): 48.8% | Success Rate ([2]; 2.4 g/day, male, moderate disease, Study 2, set-to-failure): 47.7% | Overall improvement at week 6 ([2]; 2.4 g/day, moderate UC, combined studies, female): 66% | Overall improvement at week 6 ([2]; 2.4 g/day, moderate UC, combined studies, left-sided colitis): 56% | Overall improvement at week 6 ([2]; 2.4 g/day, moderate UC, combined studies, male): 50% | Overall improvement at week 6 ([2]; 2.4 g/day, moderate UC, combined studies, pancolitis): 55% | Overall improvement at week 6 ([2]; 2.4 g/day, moderate UC, combined studies, previous steroid use: no): 62% | Overall improvement at week 6 ([2]; 2.4 g/day, moderate UC, combined studies, previous steroid use: yes): 52% | Overall improvement at week 6 ([2]; 2.4 g/day, moderate UC, combined studies, proctitis): 71% | Overall improvement at week 6 ([2]; 2.4 g/day, moderate UC, combined studies, proctosigmoiditis): 56% | Success Rate ([2]; 2.4 g/day, moderate female, bowel and blood and sig scores at least 2, Study 2, primary endpoint, week 6): 27% | Success Rate ([2]; 2.4 g/day, moderate female, bowel and blood and sig scores at least 2, Study 2, set to failure, week 6): 27% | Success Rate ([2]; 2.4 g/day, moderate female, bowel and blood and sig scores at least 2, combined studies, primary endpoint, week 6): 51% | Success Rate ([2]; 2.4 g/day, moderate female, bowel and blood and sig scores at least 2, combined studies, set to failure, week 6): 49% | Success Rate ([2]; 2.4 g/day, moderate female, steroid or (bowel and blood and sig), Study 1, primary endpoint, week 6): 55% | Success Rate ([2]; 2.4 g/day, moderate female, steroid or (bowel and blood and sig), Study 1, set to failure, week 6): 51% | Success Rate ([2]; 2.4 g/day, moderate female, steroid or (bowel and blood and sig), Study 2, primary endpoint, week 6): 33% | Success Rate ([2]; 2.4 g/day, moderate female, steroid or (bowel and blood and sig), Study 2, set to failure, week 6): 31% | Success Rate ([2]; 2.4 g/day, moderate female, steroid or (bowel and blood and sig), combined studies, primary endpoint, week 6): 46% | Success Rate ([2]; 2.4 g/day, moderate female, steroid or (bowel and blood and sig), combined studies, set to failure, week 6): 43% | Success Rate ([2]; 2.4 g/day, moderate female, steroid use, Study 1, primary endpoint, week 6): 43% | Success Rate ([2]; 2.4 g/day, moderate female, steroid use, Study 1, set to failure, week 6): 41% | Success Rate ([2]; 2.4 g/day, moderate female, steroid use, Study 2, primary endpoint, week 6): 38% | Success Rate ([2]; 2.4 g/day, moderate female, steroid use, Study 2, set to failure, week 6): 33% | Success Rate ([2]; 2.4 g/day, moderate female, steroid use, combined studies, primary endpoint, week 6): 41% | Success Rate ([2]; 2.4 g/day, moderate female, steroid use, combined studies, set to failure, week 6): 38% | Actual response rate ([2]; 2.4 g/day, women, moderate disease): exceeded 60% | Overall improvement ([2]; 4.8 g/day (800 mg tablet)): 72% | Success Rate ([2]; 4.8 g/day, female, moderate disease, Study 2, set-to-failure): 59.1% | Success Rate ([2]; 4.8 g/day, male, moderate disease, Study 1, primary analysis): 75.5% | Success Rate ([2]; 4.8 g/day, male, moderate disease, Study 1, set-to-failure): 74.1% | Success Rate ([2]; 4.8 g/day, male, moderate disease, Study 2, primary analysis): 76.3% | Success Rate ([2]; 4.8 g/day, male, moderate disease, Study 2, set-to-failure): 72.5% | Overall improvement at week 6 ([2]; 4.8 g/day, moderate UC, combined studies, female): 69% | Overall improvement at week 6 ([2]; 4.8 g/day, moderate UC, combined studies, left-sided colitis): 71% | Overall improvement at week 6 ([2]; 4.8 g/day, moderate UC, combined studies, male): 76% | Overall improvement at week 6 ([2]; 4.8 g/day, moderate UC, combined studies, pancolitis): 71% | Overall improvement at week 6 ([2]; 4.8 g/day, moderate UC, combined studies, previous steroid use: no): 69% | Overall improvement at week 6 ([2]; 4.8 g/day, moderate UC, combined studies, previous steroid use: yes): 79% | Overall improvement at week 6 ([2]; 4.8 g/day, moderate UC, combined studies, proctitis): 77% | Overall improvement at week 6 ([2]; 4.8 g/day, moderate UC, combined studies, proctosigmoiditis): 71% | Success Rate ([2]; 4.8 g/day, moderate female, bowel and blood and sig scores at least 2, Study 1, primary endpoint, week 6): 81% | Success Rate ([2]; 4.8 g/day, moderate female, bowel and blood and sig scores at least 2, Study 2, set to failure, week 6): 53% | Success Rate ([2]; 4.8 g/day, moderate female, bowel and blood and sig scores at least 2, combined studies, primary endpoint, week 6): 76% | Success Rate ([2]; 4.8 g/day, moderate female, steroid or (bowel and blood and sig), Study 1, primary endpoint, week 6): 75% | Success Rate ([2]; 4.8 g/day, moderate female, steroid or (bowel and blood and sig), Study 2, primary endpoint, week 6): 73% | Success Rate ([2]; 4.8 g/day, moderate female, steroid or (bowel and blood and sig), combined studies, primary endpoint, week 6): 74% | Success Rate ([2]; 4.8 g/day, moderate female, steroid or (bowel and blood and sig), combined studies, set to failure, week 6): about 65% | Success Rate ([2]; 4.8 g/day, moderate female, steroid use, Study 1, primary endpoint, week 6): 79% | Success Rate ([2]; 4.8 g/day, moderate female, steroid use, Study 1, set to failure, week 6): 73% | Success Rate ([2]; 4.8 g/day, moderate female, steroid use, Study 2, set to failure, week 6): 58% | Success Rate ([2]; 4.8 g/day, moderate female, steroid use, combined studies, primary endpoint, week 6): 73% | Difference in Proportions ([2]; 4.8 vs 2.4 g/day, female, moderate disease, Study 1, primary analysis): 2.3% | Difference in Proportions ([2]; 4.8 vs 2.4 g/day, female, moderate disease, Study 1, set-to-failure): 3.0% | Difference in Proportions ([2]; 4.8 vs 2.4 g/day, female, moderate disease, Study 2, primary analysis): 4.4% | Difference in Proportions ([2]; 4.8 vs 2.4 g/day, female, moderate disease, Study 2, set-to-failure): −2.4% | Difference in Proportions ([2]; 4.8 vs 2.4 g/day, male, moderate disease, Study 1, primary analysis): 25.5% | Difference in Proportions ([2]; 4.8 vs 2.4 g/day, male, moderate disease, Study 1, set-to-failure): 27.3% | Difference in Proportions ([2]; 4.8 vs 2.4 g/day, male, moderate disease, Study 2, primary analysis): 27.5% | Difference in Proportions ([2]; 4.8 vs 2.4 g/day, male, moderate disease, Study 2, set-to-failure): 24.8% | Observed differences in success rate between treatment groups ([2]; 4.8 vs 2.4 g/day, men, moderate disease): approximately 25% | Difference in Proportions ([2]; 4.8 vs 2.4 g/day, women, moderate disease, bowel and blood and sigmoidoscopy scores each ≧2, Study 1, primary endpoint): 14% | Difference in Proportions ([2]; 4.8 vs 2.4 g/day, women, moderate disease, bowel and blood and sigmoidoscopy scores each ≧2, Study 2, primary endpoint): 42% | Difference in Proportions ([2]; 4.8 vs 2.4 g/day, women, moderate disease, history of steroid use or bowel and blood and sigmoidoscopy each ≧2, Study 1, primary endpoint): 20% | Difference in Proportions ([2]; 4.8 vs 2.4 g/day, women, moderate disease, history of steroid use or bowel and blood and sigmoidoscopy each ≧2, Study 2, primary endpoint): 40% | Difference in Proportions ([2]; 4.8 vs 2.4 g/day, women, moderate disease, history of steroid use, Study 1, primary endpoint): 36% | Difference in Proportions ([2]; 4.8 vs 2.4 g/day, women, moderate disease, history of steroid use, Study 2, primary endpoint): 27% | Benefit of 4.8 g/day versus 2.4 g/day therapy (FIG. 3) ([2]; by baseline disease activity, subjects having moderate UC): increased therapeutic benefits | Benefit of 4.8 g/day versus 2.4 g/day therapy (FIG. 2) ([2]; former steroid users, moderate UC): increased therapeutic benefits | 4.8 g/day group versus 2.4 g/day group across pre-specified subgroups ([2]; point estimates and 95% confidence intervals of differences, 54 subgroups): consistently superior | Benefit of 4.8 g/day versus 2.4 g/day therapy (FIG. 1) ([2]; subjects under about 65 years of age, Caucasians, non-smokers, moderate UC): increased benefit | Probability that 4.8 g/day results in a higher success rate than 2.4 g/day (Bayesian analysis) [3]: 99.97% | Probability of a successful treatment outcome (Bayesian analysis) ([3]; 2.4 g/day): 47.2% | Probability of a successful treatment outcome (Bayesian analysis) ([3]; 4.8 g/day): 74.7% | Tolerability ([4]; 2.4 g/day (400 mg tablet)): well tolerated | Tolerability / adverse events ([4]; 4.8 g/day (800 mg tablet), oral delayed-release): well tolerated with adverse events comparable to the 2.4 g/day (400 mg tablet) dose | Safety profile of regimen ([4]; about 4.8 g/day vs 2.4 g/day regimen): comparable to that of the 2.4 g/day regimen | Physician's Global Assessment (PGA) score [1, 6]: improves in comparison to baseline | Rectal bleeding [1, 6]: reduced

O=C(O)c1cc(N=Nc2ccc(O)c(C(=O)O)c2)ccc1O [olsalazine, 3,3′-dicarboxy-4,4′-dihydroxyazobenzene]
Physician's Global Assessment (PGA) score [1, 7]: improves in comparison to baseline | Rectal bleeding [1, 7]: reduces
